# Results published in ChEMBL document CHEMBL1201862, “PubChem BioAssay data set” (2004).
#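 Results reflect a 48-hour exposure of cells in 96-well plates to compound at five concentrations. Abbreviation: GI50, concentration required for 50% inhibition of growth.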 Calls of active or inactive are those of the source. Rule as the data show it: active = GI50 up to about 1.1 µM and inactive = higher.
# Columns and labels:
# Test in all cases: inhibition of tumour cell growth, NCI panel, 48 h
# ACHN = system: ACHN
# SF-539 = system: SF-539
# SK-MEL-2 = system: SK-MEL-2
# NCI-H460 = system: NCI-H460
# HT-29 = system: HT-29
# OVCAR-8 = system: OVCAR-8
# EKVX = system: EKVX
# SK-OV-3 = system: SK-OV-3
# UACC-257 = system: UACC-257
# SNB-75 = system: SNB-75
# SN12C = system: SN12C
# OVCAR-3 = system: OVCAR-3
# MDA-N = system: MDA-N
# SW-620 = system: SW-620
# SF-268 = system: SF-268
# A498 = system: A498
# BT-549 = system: BT-549
SMILES,GI50 (ACHN),GI50 (SF-539),GI50 (SK-MEL-2),GI50 (NCI-H460),GI50 (HT-29),GI50 (OVCAR-8),GI50 (EKVX),GI50 (SK-OV-3),GI50 (UACC-257),GI50 (SNB-75),GI50 (SN12C),GI50 (OVCAR-3),GI50 (MDA-N),GI50 (SW-620),GI50 (SF-268),GI50 (A498),GI50 (BT-549)
COC(=O)c1ccccc1C1=C([N+](=O)[O-])C(c2cccc(Br)c2)C(C#N)=C(N)O1 (stereo unspecified),23.6 µM (inactive),61 µM (inactive),> 100 µM (inactive),41.3 µM (inactive),43.5 µM (inactive),21 µM (inactive),36.1 µM (inactive),> 100 µM (inactive),36.1 µM (inactive),25.4 µM (inactive),38 µM (inactive),20.7 µM (inactive),44.6 µM (inactive),25.8 µM (inactive),25.8 µM (inactive),–,–
CCCNC(=O)N(C)C(=O)N1N=C(c2ccccc2)C1c1ccccc1 (stereo unspecified),90.6 µM (inactive),> 100 µM (inactive),> 100 µM (inactive),–,–,55.7 µM (inactive),> 100 µM (inactive),> 100 µM (inactive),82.6 µM (inactive),54.3 µM (inactive),37 µM (inactive),61.7 µM (inactive),95.1 µM (inactive),> 100 µM (inactive),–,> 100 µM (inactive),–
Nc1cnc(Nc2cccc3ccccc23)o1,> 10 µM (inactive),> 10 µM (inactive),> 10 µM (inactive),> 10 µM (inactive),> 10 µM (inactive),> 10 µM (inactive),> 10 µM (inactive),> 10 µM (inactive),> 10 µM (inactive),> 10 µM (inactive),> 10 µM (inactive),> 10 µM (inactive),> 10 µM (inactive),> 10 µM (inactive),> 10 µM (inactive),> 10 µM (inactive),–
C/C(=C\c1ccc(Cl)c(Cl)c1)[N+](=O)[O-],1.98 µM (inactive),2.03 µM (inactive),1.99 µM (inactive),20.7 µM (inactive),3.78 µM (inactive),1.13 µM (inactive),2.08 µM (inactive),–,1.3 µM (inactive),4.2 µM (inactive),2.05 µM (inactive),1.65 µM (inactive),–,0.986 µM (active),1.4 µM (inactive),4.4 µM (inactive),–
OCCC/N=C1N=C(Cl)/C(=C\c2ccccc2)N\1,> 100 µM (inactive),> 100 µM (inactive),–,–,> 100 µM (inactive),> 100 µM (inactive),> 100 µM (inactive),> 100 µM (inactive),> 100 µM (inactive),> 100 µM (inactive),> 100 µM (inactive),–,> 100 µM (inactive),> 100 µM (inactive),> 100 µM (inactive),> 100 µM (inactive),–
CCOC(=O)c1sc2c(c1OC(=O)c1ccccc1)c(=O)n(-c1ccccc1)c(=S)n2-c1ccccc1,32 µM (inactive),20.6 µM (inactive),–,19.3 µM (inactive),19.2 µM (inactive),34.3 µM (inactive),63.8 µM (inactive),38.2 µM (inactive),87.3 µM (inactive),–,> 100 µM (inactive),24.5 µM (inactive),–,44.6 µM (inactive),38.5 µM (inactive),15.5 µM (inactive),–
CN1CCN(Cn2nc(-c3ccccc3)n(/N=C/c3ccc(-c4ccc(Cl)cc4Cl)o3)c2=S)CC1,–,13.5 µM (inactive),20.7 µM (inactive),5.61 µM (inactive),12.3 µM (inactive),8.45 µM (inactive),30.1 µM (inactive),13.5 µM (inactive),18 µM (inactive),–,–,11.7 µM (inactive),13.4 µM (inactive),11.8 µM (inactive),5.83 µM (inactive),26 µM (inactive),–
C/C(Nc1ccc(Cl)cc1Cl)=C1/CCOC1=O,92.9 µM (inactive),25.7 µM (inactive),–,89.5 µM (inactive),> 100 µM (inactive),48.3 µM (inactive),10.4 µM (inactive),–,> 100 µM (inactive),36.9 µM (inactive),41.5 µM (inactive),> 100 µM (inactive),–,> 100 µM (inactive),30.8 µM (inactive),59.8 µM (inactive),24.1 µM (inactive)
